Assays:
Assay type in all cases: biochemical
[1] = molecular target: T1, BRAF (Homo sapiens, UniProt P15056); assay: Eurofins in vitro kinase inhibition assay; conditions: 20 µM; Table 3; read-out: % inhib. at 20 µM, BRAF (Eurofins), printed as symbol
T1 construct: purchased DiscoverX (KINOMEscan service); host or cells: E. coli BL21-derived host (T7 phage) or HEK-293
Procedure, shortened: (§1)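 Reported as mean (SD) % inhibition of control activity at 20 µM compound. PI3K: PIP2-derived PIP3 displacing biotinylated PIP3 from a binding complex, HTRF read-out. EGFR, ErbB2, BRAF: kinase, ATP and substrate analog incubated with compound, phosphorylation quantified.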

[2] = molecular target: T2, ErbB2 (Homo sapiens, UniProt P04626); assay: Eurofins in vitro kinase inhibition assay
T2 construct: purchased DiscoverX (KINOMEscan service); host or cells: E. coli BL21-derived host (T7 phage) or HEK-293
Procedure, shortened: as §1

[3] = molecular target: PI3K (Homo sapiens, UniProt P42336); assay: Eurofins in vitro kinase inhibition assay (HTRF, PIP3 displacement); parameters: purchased Eurofins Cerep (contract assay); conditions: compound 20 µM; mean (SD); above 50% significant, 25-50% weak
Procedure, shortened: as §1

T2 sequence (P04626 23-1255): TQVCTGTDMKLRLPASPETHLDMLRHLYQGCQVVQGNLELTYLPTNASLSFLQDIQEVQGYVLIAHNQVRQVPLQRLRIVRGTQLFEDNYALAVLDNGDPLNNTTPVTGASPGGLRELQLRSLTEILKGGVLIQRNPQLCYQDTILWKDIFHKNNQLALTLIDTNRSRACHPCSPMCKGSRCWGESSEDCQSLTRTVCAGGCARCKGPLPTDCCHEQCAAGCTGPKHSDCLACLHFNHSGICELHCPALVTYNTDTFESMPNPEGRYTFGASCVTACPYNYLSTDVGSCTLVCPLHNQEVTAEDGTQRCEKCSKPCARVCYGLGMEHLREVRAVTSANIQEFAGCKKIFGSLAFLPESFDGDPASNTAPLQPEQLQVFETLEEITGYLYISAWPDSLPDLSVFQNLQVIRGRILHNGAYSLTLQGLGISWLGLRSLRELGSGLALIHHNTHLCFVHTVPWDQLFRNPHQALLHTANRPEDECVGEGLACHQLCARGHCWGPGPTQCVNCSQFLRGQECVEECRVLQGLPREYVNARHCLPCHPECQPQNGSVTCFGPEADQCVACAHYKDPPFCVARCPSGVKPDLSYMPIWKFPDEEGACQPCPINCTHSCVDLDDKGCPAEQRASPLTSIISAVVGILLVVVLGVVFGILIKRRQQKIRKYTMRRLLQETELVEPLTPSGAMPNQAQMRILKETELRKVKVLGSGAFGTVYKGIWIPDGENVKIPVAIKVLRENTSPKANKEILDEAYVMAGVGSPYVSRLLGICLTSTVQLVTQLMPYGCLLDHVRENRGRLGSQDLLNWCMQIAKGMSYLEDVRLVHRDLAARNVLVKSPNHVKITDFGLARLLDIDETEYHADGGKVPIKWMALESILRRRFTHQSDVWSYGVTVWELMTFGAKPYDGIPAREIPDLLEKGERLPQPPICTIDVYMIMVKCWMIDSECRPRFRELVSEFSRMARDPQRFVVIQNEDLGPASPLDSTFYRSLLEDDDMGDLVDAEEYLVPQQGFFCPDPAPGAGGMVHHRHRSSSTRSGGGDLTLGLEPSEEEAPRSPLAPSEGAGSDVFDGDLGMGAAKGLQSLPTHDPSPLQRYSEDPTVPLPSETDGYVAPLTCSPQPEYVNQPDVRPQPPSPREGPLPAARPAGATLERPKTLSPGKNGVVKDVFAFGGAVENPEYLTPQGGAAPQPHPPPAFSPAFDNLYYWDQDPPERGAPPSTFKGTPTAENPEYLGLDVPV
T1 sequence (P15056 whole entry): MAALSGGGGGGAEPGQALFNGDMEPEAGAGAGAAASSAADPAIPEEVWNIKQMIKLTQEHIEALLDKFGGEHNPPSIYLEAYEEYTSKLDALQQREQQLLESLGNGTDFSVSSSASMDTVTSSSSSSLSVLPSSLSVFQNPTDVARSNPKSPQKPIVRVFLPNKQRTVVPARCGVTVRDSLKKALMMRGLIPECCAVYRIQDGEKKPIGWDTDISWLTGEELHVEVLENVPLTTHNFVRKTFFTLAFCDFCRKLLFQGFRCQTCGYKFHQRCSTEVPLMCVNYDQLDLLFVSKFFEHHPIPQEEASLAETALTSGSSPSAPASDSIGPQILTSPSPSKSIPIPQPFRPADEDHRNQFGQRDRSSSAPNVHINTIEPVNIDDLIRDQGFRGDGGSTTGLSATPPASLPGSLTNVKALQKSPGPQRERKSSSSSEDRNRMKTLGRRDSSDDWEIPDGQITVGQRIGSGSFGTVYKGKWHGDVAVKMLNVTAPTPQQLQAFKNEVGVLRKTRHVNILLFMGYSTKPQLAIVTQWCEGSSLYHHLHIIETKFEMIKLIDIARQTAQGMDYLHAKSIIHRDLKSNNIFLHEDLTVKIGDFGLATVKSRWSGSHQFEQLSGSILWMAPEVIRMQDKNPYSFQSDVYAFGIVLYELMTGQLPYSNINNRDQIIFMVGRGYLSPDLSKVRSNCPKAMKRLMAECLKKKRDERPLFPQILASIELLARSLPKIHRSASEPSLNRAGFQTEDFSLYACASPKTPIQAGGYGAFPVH
PI3K, sequence (P42336 whole entry): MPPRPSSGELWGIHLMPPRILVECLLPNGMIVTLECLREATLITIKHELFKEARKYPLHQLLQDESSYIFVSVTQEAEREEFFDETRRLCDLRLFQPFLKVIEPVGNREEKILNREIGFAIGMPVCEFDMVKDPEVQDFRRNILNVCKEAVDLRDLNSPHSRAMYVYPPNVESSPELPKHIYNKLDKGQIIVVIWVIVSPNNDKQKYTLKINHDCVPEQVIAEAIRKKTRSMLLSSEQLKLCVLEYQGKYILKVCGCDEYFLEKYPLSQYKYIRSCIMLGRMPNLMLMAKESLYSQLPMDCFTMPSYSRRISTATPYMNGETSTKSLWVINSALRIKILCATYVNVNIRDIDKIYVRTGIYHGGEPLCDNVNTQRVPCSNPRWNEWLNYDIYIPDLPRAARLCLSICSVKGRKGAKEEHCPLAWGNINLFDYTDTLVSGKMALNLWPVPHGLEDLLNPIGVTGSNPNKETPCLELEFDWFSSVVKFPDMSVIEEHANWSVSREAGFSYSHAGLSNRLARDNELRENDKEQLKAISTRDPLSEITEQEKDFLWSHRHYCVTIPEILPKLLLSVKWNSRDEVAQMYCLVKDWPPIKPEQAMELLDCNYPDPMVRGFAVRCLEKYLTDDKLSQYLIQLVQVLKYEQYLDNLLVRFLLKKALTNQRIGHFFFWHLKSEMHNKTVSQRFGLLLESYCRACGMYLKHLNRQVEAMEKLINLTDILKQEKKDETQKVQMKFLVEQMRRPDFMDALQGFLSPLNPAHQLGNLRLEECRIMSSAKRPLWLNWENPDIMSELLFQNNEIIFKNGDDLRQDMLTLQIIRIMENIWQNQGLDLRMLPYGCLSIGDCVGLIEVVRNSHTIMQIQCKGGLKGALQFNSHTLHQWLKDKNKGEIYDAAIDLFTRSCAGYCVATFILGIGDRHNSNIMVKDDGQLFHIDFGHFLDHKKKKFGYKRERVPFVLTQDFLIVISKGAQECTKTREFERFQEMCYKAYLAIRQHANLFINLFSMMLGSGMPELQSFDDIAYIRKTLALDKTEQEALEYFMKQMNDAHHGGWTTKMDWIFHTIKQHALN
PI3K, sequence (P27986 whole entry partner): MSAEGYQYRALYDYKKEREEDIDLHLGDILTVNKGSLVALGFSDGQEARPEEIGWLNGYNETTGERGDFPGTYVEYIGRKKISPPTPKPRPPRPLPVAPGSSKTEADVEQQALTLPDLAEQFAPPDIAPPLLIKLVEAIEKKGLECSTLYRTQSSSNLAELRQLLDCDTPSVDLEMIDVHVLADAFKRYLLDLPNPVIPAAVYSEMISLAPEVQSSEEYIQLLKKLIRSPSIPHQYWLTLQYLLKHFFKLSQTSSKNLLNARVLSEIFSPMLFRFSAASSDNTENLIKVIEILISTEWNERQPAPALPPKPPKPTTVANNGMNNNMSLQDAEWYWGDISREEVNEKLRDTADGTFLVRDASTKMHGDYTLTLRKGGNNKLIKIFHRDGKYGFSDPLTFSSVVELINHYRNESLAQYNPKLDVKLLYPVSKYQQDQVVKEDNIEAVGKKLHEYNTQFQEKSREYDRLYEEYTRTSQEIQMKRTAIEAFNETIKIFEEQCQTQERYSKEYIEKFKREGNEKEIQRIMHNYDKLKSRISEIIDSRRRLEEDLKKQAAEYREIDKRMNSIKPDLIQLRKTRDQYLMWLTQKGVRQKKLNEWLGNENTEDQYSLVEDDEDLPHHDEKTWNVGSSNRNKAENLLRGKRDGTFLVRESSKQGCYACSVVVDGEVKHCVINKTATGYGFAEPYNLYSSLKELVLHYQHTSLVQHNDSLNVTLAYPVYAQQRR

COC(=O)Cc1ccc(Oc2ncnc3sc4c(c23)CC[C@@H](C)C4)cc1 (racemic) [DS39984]
inhibition at 20 µM [1]: < 50%
inhibition at 20 µM ([2]; 20 µM, Table 3, read-out: % inhib. at 20 µM, ErbB2 (Eurofins), printed as symbol): < 50%
% inhibition of control activity, ErbB2 (Eurofins) ([2]; compound 20 µM, mean (SD), above 50% significant, 25-50% weak): -1.3 (1.8) % inhibition
% inhibition of control activity, PI3K (Eurofins) [3]: -6.7 (2.3) % inhibition

— paper PMC7865522, “Analyzing Kinase Similarity in Small Molecule and Protein Structural Space to Explore the Limits of Multi-Target Screening” (Molecules, 2021)
